Organism: Homo sapiens
Experiment: Influence on the doubling of activated partial human thromboplastin time(APTT)
Type: functional
Settings: not given

Question: Which Activity does the source give for `Nc1ccc(C[C@H](NS(=O)(=O)c2cnccc2N[C@@H](Cc2ccccc2)CN2CCOCC2)C(=O)N2CCC(CCF)CC2)cc1` here?
Answer: Its Activity is 2.9 µM.

Question: With `CN(C)C[C@H](Cc1ccccc1)Nc1ccncc1S(=O)(=O)N[C@@H](Cc1ccccc1)C(=O)N1CCC(CCF)CC1` (stereo in doubt; 64) [listing 1 of 2 here] as the compound, how does the Activity read?
Answer: Its Activity is 9.6 µM.

Question: With `O=C([C@H](Cc1ccc(O)cc1)NS(=O)(=O)c1cnccc1N[C@H](COCCO)Cc1ccccc1)N1CCC(CCCl)CC1` as the compound, how does the Activity read?
Answer: The Activity was 4.4 µM.

Question: For `CCC1CCN(C(=O)[C@H](Cc2ccc(N)cc2)NS(=O)(=O)c2cnccc2N[C@H](COCCO)Cc2ccccc2)CC1` (stereo in doubt; 62) [listing 1 of 2 here], which Activity is on record?
Answer: The Activity was 5 µM.

Target: Prothrombin (Homo sapiens, UniProt P00734)
Experiment: In vitro inhibition of human thrombin.
Settings: not given

Question: Which Ki does the source give for `CN(C)C[C@H](Cc1ccccc1)Nc1ccncc1S(=O)(=O)N[C@@H](Cc1ccccc1)C(=O)N1CCC(CCF)CC1` (stereo in doubt; 8) here?
Answer: Its Ki is 130 nM.

Question: For `CCC1CCN(C(=O)[C@H](Cc2ccc(N)cc2)NS(=O)(=O)c2cnccc2N[C@H](COCCO)Cc2ccccc2)CC1` (stereo in doubt; 16), which Ki is on record?
Answer: The Ki was 147 nM.

Question: Which Ki does the source give for `CCC1CCN(C(=O)[C@H](Cc2ccc(N)cc2)NS(=O)(=O)c2cnccc2N[C@H](CO)Cc2ccc(OC)cc2)CC1` here?
Answer: Its Ki is 40 nM.

Question: For `CCC1CCN(C(=O)[C@H](Cc2ccc(N)cc2)NS(=O)(=O)c2cnccc2N[C@H](COCCO)Cc2ccccc2)CC1` (stereo in doubt; 62) [listing 2 of 2 here], which Ki is on record?
Answer: The Ki was 147 nM.

Question: With `O=C([C@H](Cc1ccccc1)NS(=O)(=O)c1cnccc1N[C@H](COCCO)Cc1ccccc1)N1CCC(CCF)CC1` as the compound, how does the Ki read?
Answer: Its Ki is 220 nM.

Question: Which Ki does the source give for `CCC1CCN(C(=O)[C@H](Cc2ccc(N)cc2)NS(=O)(=O)c2cnccc2N[C@@H](Cc2ccccc2)CN2CCOCC2)CC1` here?
Answer: The Ki was 62 nM.

Question: For `COc1ccc(C[C@@H](CO)Nc2ccncc2S(=O)(=O)N[C@@H](Cc2ccccc2)C(=O)N2CCC(CCF)CC2)cc1`, which Ki is on record?
Answer: The Ki was 85 nM.

Question: For `O=C([C@H](Cc1ccc(O)cc1)NS(=O)(=O)c1cnccc1N[C@H](COCCO)Cc1ccccc1)N1CCC(CCCl)CC1`, which Ki is on record?
Answer: Its Ki is 28 nM.

Question: Which Ki does the source give for `O=C([C@H](Cc1ccccc1)NS(=O)(=O)c1cnccc1N[C@@H](Cc1ccccc1)CN1CCC(O)CC1)N1CCC(CCF)CC1` here?
Answer: The Ki was 61 nM.

Question: Which Ki does the source give for `CN(C)C[C@H](Cc1ccccc1)Nc1ccncc1S(=O)(=O)N[C@@H](Cc1ccccc1)C(=O)N1CCC(CCF)CC1` (stereo in doubt; 64) [listing 2 of 2 here] here?
Answer: Its Ki is 130 nM.

Tested on: not listed separately
Experiment: Bioavailability in rat after p.o. administration at a dose of 30 mg/kg
Type: ADME, organism-based
Settings: in vivo, po

Question: For `CCC1CCN(C(=O)[C@H](Cc2ccc(N)cc2)NS(=O)(=O)c2cnccc2N[C@H](COCCO)Cc2ccccc2)CC1` (stereo in doubt; 62) [listing 2 of 2 here], which bioavailability is on record?
Answer: Its bioavailability is 55%.
